Assay results as given in the supplement of paper PMC10307832.

Legend:
Assay in all cases: relative viability (nuclei count vs DMSO), 5 days (fraction); higher = more cells survive
VE-821 + Lapatinib = compound: CS(=O)(=O)c1ccc(-c2cnc(N)c(C(=O)Nc3ccccc3)n2)cc1 [VE-821] + CS(=O)(=O)CCNCc1ccc(-c2ccc3ncnc(Nc4ccc(OCc5cccc(F)c5)c(Cl)c4)c3c2)o1 [Lapatinib] (partner 2 µM)
How it was run: (§1)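 Relative viability was taken as the ratio of nuclei in treated wells to nuclei in vehicle wells. Lung cancer cell lines in 1536-well plates received compounds by pin tool one day after seeding, either one drug alone or a fixed anchor-drug dose plus five library-drug doses (not always all listed) in √10 steps. Nuclei were counted on 4× images after 5 days of treatment, and values are medians of duplicate plates.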

VE-821 + Pictilisib = compound: CS(=O)(=O)c1ccc(-c2cnc(N)c(C(=O)Nc3ccccc3)n2)cc1 [VE-821] + CS(=O)(=O)N1CCN(Cc2cc3nc(-c4cccc5[nH]ncc45)nc(N4CCOCC4)c3s2)CC1 [Pictilisib] (partner 1 µM)
How it was run: as §1

Ruxolitinib + Pictilisib = compound: N#CC[C@H](C1CCCC1)n1cc(-c2ncnc3[nH]ccc23)cn1 [Ruxolitinib] + CS(=O)(=O)N1CCN(Cc2cc3nc(-c4cccc5[nH]ncc45)nc(N4CCOCC4)c3s2)CC1 [Pictilisib] (partner 1 µM)
How it was run: as §1

Ruxolitinib + Decitabine = compound: N#CC[C@H](C1CCCC1)n1cc(-c2ncnc3[nH]ccc23)cn1 [Ruxolitinib] + Nc1ncn([C@H]2C[C@H](O)[C@@H](CO)O2)c(=O)n1 [Decitabine] (partner 2 µM)
How it was run: as §1

Cell Line | relative viability (VE-821 + Lapatinib; first compound 0.08 µM) | relative viability (VE-821 + Lapatinib; first compound 0.253 µM) | relative viability (VE-821 + Lapatinib; first compound 0.8 µM) | relative viability (VE-821 + Lapatinib; first compound 2.53 µM) | relative viability (VE-821 + Lapatinib; first compound 8 µM) | relative viability (VE-821 + Pictilisib; first compound 0.08 µM) | relative viability (VE-821 + Pictilisib; first compound 0.253 µM) | relative viability (VE-821 + Pictilisib; first compound 0.8 µM) | relative viability (VE-821 + Pictilisib; first compound 2.53 µM) | relative viability (VE-821 + Pictilisib; first compound 8 µM) | relative viability (Ruxolitinib + Pictilisib; first compound 0.08 µM) | relative viability (Ruxolitinib + Pictilisib; first compound 0.253 µM) | relative viability (Ruxolitinib + Pictilisib; first compound 0.8 µM) | relative viability (Ruxolitinib + Pictilisib; first compound 2.53 µM) | relative viability (Ruxolitinib + Pictilisib; first compound 8 µM) | relative viability (Ruxolitinib + Decitabine; first compound 0.08 µM) | relative viability (Ruxolitinib + Decitabine; first compound 0.253 µM) | relative viability (Ruxolitinib + Decitabine; first compound 0.8 µM) | relative viability (Ruxolitinib + Decitabine; first compound 2.53 µM) | relative viability (Ruxolitinib + Decitabine; first compound 8 µM)
LXF-289 | 1.02 | 0.993 | 0.911 | 1.07 | 0.966 | 0.969 | 0.754 | 0.796 | 0.869 | 0.808 | 0.785 | 0.797 | 0.804 | 0.739 | 0.498 | 0.369 | 0.426 | 0.353 | 0.363 | 0.371
NCI-H23 | 1.19 | 1.07 | 1.27 | 0.989 | 0.394 | 0.554 | 0.458 | 0.506 | 0.469 | 0.277 | 0.519 | 0.474 | 0.603 | 0.439 | 0.415 | 0.311 | 0.337 | 0.359 | 0.275 | 0.305
NCI-H322M | 0.555 | – | 0.654 | 0.627 | 0.508 | 0.549 | – | 0.49 | 0.608 | 0.422 | 0.4 | 0.604 | 0.491 | 0.611 | 0.665 | 0.718 | 0.702 | 0.744 | 0.693 | 0.889
NCI-H358 | 0.445 | 0.376 | 0.486 | 0.553 | 0.489 | 0.383 | 0.273 | 0.408 | 0.359 | 0.38 | 0.413 | 0.343 | 0.342 | 0.268 | 0.265 | 0.226 | 0.202 | 0.213 | 0.169 | 0.194
NCI-H460 | 1.33 | 0.996 | 0.82 | 0.729 | 0.398 | 0.416 | 0.355 | 0.288 | 0.488 | 0.325 | 0.179 | 0.309 | 0.307 | 0.386 | 0.114 | 0.451 | 0.408 | 0.576 | 0.28 | 0.388
NCI-H520 | 0.874 | 0.845 | – | 0.789 | 0.519 | 0.321 | 0.357 | – | 0.325 | 0.276 | – | 0.258 | 0.236 | 0.251 | 0.34 | 0.506 | 0.484 | 0.553 | 0.47 | 0.525
NCI-H596 | 1.06 | 0.87 | 1.12 | 1.26 | 1 | 0.416 | 0.4 | 0.431 | 0.431 | 0.385 | 0.379 | 0.339 | 0.387 | 0.418 | 0.386 | 0.903 | 0.96 | 1.14 | 1.04 | 1.08
NCI-H647 | 1.15 | 0.884 | 1 | 1.16 | 0.535 | 0.472 | 0.391 | – | 0.428 | 0.263 | – | 0.358 | 0.449 | 0.362 | 0.514 | 0.45 | 0.351 | 0.433 | 0.28 | 0.344
NCI-H650 | 0.887 | 0.929 | 0.903 | 0.957 | 0.982 | 0.882 | 0.927 | 0.731 | 0.985 | 0.88 | – | 0.881 | 1.21 | 0.699 | 0.649 | 0.364 | 0.38 | 0.28 | 0.342 | 0.332
